We go through nine compounds from patent publication US8889671B2, “Compounds and methods for treating bacterial infections” (AstraZeneca AB, priority 2013, dated 2014).

pIC50: −log10 of the molar value. Values after ≈ are worked out from the molar mass of the structure shown. Where two headings read alike, the source gives them in different places. A value given as a limit tells only on which side of the number the result lay.

One test deals with Streptococcus pneumoniae. Briefly: Susceptibility testing (MIC) Assay 1, broth microdilution. The class given is cell-based. (Broth dilution looks for growth in wells or tubes with falling amounts of substance.)
A further test has as its system Staphylococcus aureus. Described as above. The class given is cell-based. As to conditions: Staphylococcus aureus.
A further test concerns Streptococcus pyogenes. The test is described as above. The class given is cell-based. As to conditions: Streptococcus pyogenes, Streptococcus pyrgenes, in vivo strain; read-out: Spy MIC.
In test [1] the target is Escherichia coli DNA gyrase A/B tetramer (Escherichia coli (strain K12), UniProt P0AES4+P0AES6). Briefly: DNA gyrase supercoiling activity fluorescence polarisation assay. The class given is biochemical. As to conditions: Eco Gyr FP Mean IC50, E. coli DNA gyrase supercoiling, 0.3 mM ATP. In outline:
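Relaxed triplex-forming plasmid (130 micrograms/mL) supercoiled by 5 nM gyrase A/B tetramer in Tris-HCl pH 7.5 buffer with 4 mM MgCl2 and 0.3 mM ATP, ~30 min, ambient temperature. Quenched with 5′-BODIPY-FL triplex probe at pH 3.5; fluorescence anisotropy read after 60 min. IC50 by nonlinear regression against two control reactions.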

The subject of the next test is Escherichia coli. Briefly: Susceptibility testing (MIC) Assay 2, broth microdilution. The class given is cell-based. As to conditions: K12, read-out: Eco MIC.
For the next test, the system named is Klebsiella pneumoniae. The test is described as above. The class given is cell-based. As to conditions: clinical isolate, mucoid, read-out: Kpn MIC.
Another test has as its system Pseudomonas aeruginosa. The description is as above. The class given is cell-based. As to conditions: PAO1, read-out: Pae MIC.
The test system of the next test is Haemophilus influenzae. The test is described as above. The class given is cell-based. As to conditions: ATCC51907, Haemophilus influenzae, ATCC 51907, in vivo strain, read-out: Hin MIC.
The mark [2] stands for this setting: in vivo strain (footnote b), read-out: Spn(b) MIC.
[3] abbreviates: in vivo strain (footnote c), read-out: Spn(c) MIC.
Setting [4] is: Staphylococcus aureus in vivo strain, MSQS, read-out: Sau(d) MIC.
The mark [5] stands for this setting: in vivo strain, MRQR, read-out: Sau(e) MIC.

A word on the pIC50: it is the negative decadic logarithm of the IC50, by convention in mol/L. Read a high pIC50 as a small IC50. In the case of `CCOC[C@H]1COC(=O)N1c1noc2c(F)c3c(cc12)CC1(C(=O)NC(=O)NC1=O)[C@H]1[C@H](C)O[C@H](C)CN31` [Example 49, (2R,4S,4aS)-8-[(4S)-4-(Ethoxymethyl)-2-oxo-1,3-oxazolidin-3-yl]-11-fluoro-2,4-dimethyl-1,2,4,4a-tetrahydro-2′H,6H-spiro[1,4-oxazino[4,3-a][1,2]oxazolo[4,5-g]quinoline-5,5′-pyrimidine]-2′,4′,6′(1′H,3′H)-trione], the MIC in the test on Streptococcus pneumoniae (setting [2]) is 0.78 µM (≈ 0.415 µg/mL); with Streptococcus pneumoniae (setting [3]) it was 1.6 µM (≈ 0.85 µg/mL); in the test with Staphylococcus aureus (setting [4]), 0.39 µM (≈ 0.207 µg/mL); in the test on Staphylococcus aureus (setting [5]) it was 0.78 µM (≈ 0.415 µg/mL); in the test on Staphylococcus aureus (serum, read-out: Sau(f) MIC), 0.78 µM (≈ 0.415 µg/mL); in the test with Streptococcus pyogenes it was 0.78 µM (≈ 0.415 µg/mL). In addition, the MIC with Escherichia coli was 50 µM (≈ 26.6 µg/mL); in the test on Klebsiella pneumoniae, more than 200 µM; in the test with Pseudomonas aeruginosa, more than 200 µM; in the test on Haemophilus influenzae it was 1.6 µM (≈ 0.85 µg/mL). Also, in test [1], the pIC50 was 6.42.

As for `COCCOC[C@H]1COC(=O)N1c1noc2c(F)c3c(cc12)CC1(C(=O)NC(=O)NC1=O)[C@H]1[C@H](C)O[C@H](C)CN31` [Example 50, (2R,4S,4aS)-11-Fluoro-8-{(4S)-4-[(2-methoxyethoxy)methyl]-2-oxo-1,3-oxazolidin-3-yl}-2,4-dimethyl-1,2,4,4a-tetrahydro-2′H,6H-spiro[1,4-oxazino[4,3-a][1,2]oxazolo[4,5-g]quinoline-5,5′-pyrimidine]-2′,4′,6′(1′H,3′H)-trione], the MIC with Streptococcus pneumoniae (setting [2]) turned out to be 1.6 µM (≈ 0.898 µg/mL); in the test with Streptococcus pneumoniae (setting [3]), 1.6 µM (≈ 0.898 µg/mL); in the test on Staphylococcus aureus (setting [4]), 1.6 µM (≈ 0.898 µg/mL); in the test on Staphylococcus aureus (setting [5]), 3.1 µM (≈ 1.74 µg/mL); in the test on Staphylococcus aureus (serum, read-out: Sau(f) MIC), 1.6 µM (≈ 0.898 µg/mL); in the test with Streptococcus pyogenes, 1.6 µM (≈ 0.898 µg/mL). Further, the MIC is 200 µM (≈ 112 µg/mL) in the test on Escherichia coli, more than 200 µM with Klebsiella pneumoniae, more than 200 µM with Pseudomonas aeruginosa and 3.1 µM (≈ 1.74 µg/mL) with Haemophilus influenzae. This compound also gave a pIC50 in test [1] of 6.70.

For the compound `C[C@@H]1CN2c3c(cc4c(N5C(=O)OC[C@@H]5C(F)F)noc4c3F)CC3(C(=O)NC(=O)NC3=O)[C@H]2[C@H](C)O1` [Example 51], the MIC in the test with Streptococcus pneumoniae (setting [2]) is 0.78 µM (≈ 0.408 µg/mL); in the test with Streptococcus pneumoniae (setting [3]) it was 0.78 µM (≈ 0.408 µg/mL); in the test on Staphylococcus aureus (setting [4]), 0.28 µM (≈ 0.147 µg/mL); with Staphylococcus aureus (setting [5]), 0.55 µM (≈ 0.288 µg/mL); with Staphylococcus aureus (serum, read-out: Sau(f) MIC), 0.78 µM (≈ 0.408 µg/mL); in the test on Streptococcus pyogenes, 0.55 µM (≈ 0.288 µg/mL). Moreover, the MIC in the test with Escherichia coli is 12 µM (≈ 6.28 µg/mL); with Klebsiella pneumoniae it was 100 µM (≈ 52.3 µg/mL); in the test on Pseudomonas aeruginosa it was more than 200 µM; in the test with Haemophilus influenzae it was 0.39 µM (≈ 0.204 µg/mL). Besides, the negative logarithm of the IC50 (pIC50) in test [1] was 6.37.

`C[C@@H]1CN2c3c(cc4c(N5C(=O)OC[C@@H]5C5CC5)noc4c3F)CC3(C(=O)NC(=O)NC3=O)[C@H]2[C@H](C)O1` [Example 52]: the MIC with Streptococcus pneumoniae (setting [2]) turned out to be 1.6 µM (≈ 0.822 µg/mL); in the test with Streptococcus pneumoniae (setting [3]) it was 1.6 µM (≈ 0.822 µg/mL); in the test on Staphylococcus aureus (setting [4]), 0.78 µM (≈ 0.401 µg/mL); in the test with Staphylococcus aureus (setting [5]), 1.6 µM (≈ 0.822 µg/mL); in the test on Staphylococcus aureus (serum, read-out: Sau(f) MIC), 3.1 µM (≈ 1.59 µg/mL); in the test on Streptococcus pyogenes, 0.78 µM (≈ 0.401 µg/mL). Moreover, the MIC in the test with Escherichia coli was 25 µM (≈ 12.8 µg/mL); in the test on Klebsiella pneumoniae, 200 µM (≈ 103 µg/mL); in the test on Pseudomonas aeruginosa, more than 200 µM; in the test with Haemophilus influenzae, 0.78 µM (≈ 0.401 µg/mL). In test [1], this compound had a pIC50 of 6.05.

Regarding `C[C@@H]1CN2c3c(cc4c(N5C[C@H](c6ccccn6)OC5=O)noc4c3F)CC3(C(=O)NC(=O)NC3=O)[C@H]2[C@H](C)O1` [Example 53, (2R,4S,4aS)-11-Fluoro-2,4-dimethyl-8-((R)-2-oxo-5-(pyridin-2-yl)oxazolidin-3-yl)-2,4,4a,6-tetrahydro-1H,1′H-spiro[isoxazolo[4,5-g][1,4]oxazino[4,3-a]quinoline-5,5′-pyrimidine]-2′,4′,6′(3′H)-trione], the MIC was 0.39 µM (≈ 0.215 µg/mL) in the test on Streptococcus pneumoniae (setting [2]); 0.55 µM (≈ 0.303 µg/mL) in the test on Streptococcus pneumoniae (setting [3]); 0.098 µM (≈ 0.0539 µg/mL) with Staphylococcus aureus (setting [4]); 0.39 µM (≈ 0.215 µg/mL) with Staphylococcus aureus (setting [5]); 0.55 µM (≈ 0.303 µg/mL) in the test on Staphylococcus aureus (serum, read-out: Sau(f) MIC); 0.464 µM (≈ 0.255 µg/mL) in the test on Streptococcus pyogenes. Besides, the MIC with Escherichia coli was 35 µM (≈ 19.3 µg/mL); in the test with Klebsiella pneumoniae, more than 200 µM; in the test on Pseudomonas aeruginosa it was more than 200 µM; with Haemophilus influenzae, 1.1 µM (≈ 0.606 µg/mL). The compound further showed a pIC50 in test [1] of 6.42.

With `C[C@@H]1CN2c3c(cc4c(N5C[C@@H](c6ccccn6)OC5=O)noc4c3F)CC3(C(=O)NC(=O)NC3=O)[C@H]2[C@H](C)O1` [Example 54, (2R,4S,4aS)-11-fluoro-2,4-dimethyl-8-((S)-2-oxo-5-(pyridin-2-yl)oxazolidin-3-yl)-2,4,4a,6-tetrahydro-1H,1′H-spiro[isoxazolo[4,5-g][1,4]oxazino[4,3-a]quinoline-5,5′-pyrimidine]-2′,4′,6′(3′H)-trione], the MIC was 0.78 µM (≈ 0.429 µg/mL) with Streptococcus pneumoniae (setting [2]); 0.78 µM (≈ 0.429 µg/mL) in the test on Streptococcus pneumoniae (setting [3]); 0.39 µM (≈ 0.215 µg/mL) in the test with Staphylococcus aureus (setting [4]); 0.78 µM (≈ 0.429 µg/mL) with Staphylococcus aureus (setting [5]); 1.6 µM (≈ 0.881 µg/mL) in the test on Staphylococcus aureus (serum, read-out: Sau(f) MIC); 0.78 µM (≈ 0.429 µg/mL) in the test with Streptococcus pyogenes. In addition, the MIC in the test on Escherichia coli was 100 µM (≈ 55.1 µg/mL); in the test with Klebsiella pneumoniae, more than 200 µM; in the test on Pseudomonas aeruginosa, more than 200 µM; in the test with Haemophilus influenzae it was 3.1 µM (≈ 1.71 µg/mL). Besides, the pIC50 in test [1] was 6.03.

In the case of `C[C@@H]1CN2c3c(cc4c(N5C(=O)OC[C@H]5c5ccccn5)noc4c3F)CC3(C(=O)NC(=O)NC3=O)[C@H]2[C@H](C)O1` [Example 55, (2R,4S,4aS)-11-Fluoro-2,4-dimethyl-8-((R)-2-oxo-4-(pyridin-2-yl)oxazolidin-3-yl)-2,4,4a,6-tetrahydro-1H,1′H-spiro[isoxazolo[4,5-g][1,4]oxazino[4,3-a]quinoline-5,5′-pyrimidine]-2′,4′,6′(3′H)-trione], the MIC turned out to be 0.78 µM (≈ 0.429 µg/mL) with Streptococcus pneumoniae (setting [2]); 0.78 µM (≈ 0.429 µg/mL) with Streptococcus pneumoniae (setting [3]); 0.78 µM (≈ 0.429 µg/mL) in the test on Staphylococcus aureus (setting [4]); 1.6 µM (≈ 0.881 µg/mL) in the test with Staphylococcus aureus (setting [5]); 1.6 µM (≈ 0.881 µg/mL) in the test with Staphylococcus aureus (serum, read-out: Sau(f) MIC); 0.78 µM (≈ 0.429 µg/mL) in the test on Streptococcus pyogenes. Besides, the MIC is 50 µM (≈ 27.5 µg/mL) in the test with Escherichia coli, more than 200 µM with Klebsiella pneumoniae, more than 200 µM with Pseudomonas aeruginosa and 0.39 µM (≈ 0.215 µg/mL) in the test with Haemophilus influenzae. Also, in test [1], the pIC50 is 6.82.

Turning to `C[C@@H]1CN2c3c(cc4c(N5C(=O)OC[C@@H]5c5ccccn5)noc4c3F)CC3(C(=O)NC(=O)NC3=O)[C@H]2[C@H](C)O1` [Example 56, (2R,4S,4aS)-11-fluoro-2,4-dimethyl-8-((S)-2-oxo-4-(pyridin-2-yl)oxazolidin-3-yl)-2,4,4a,6-tetrahydro-1H,1′H-spiro[isoxazolo[4,5-g][1,4]oxazino[4,3-a]quinoline-5,5′-pyrimidine]-2′,4′,6′(3′H)-trione], the MIC came out at 6.2 µM (≈ 3.41 µg/mL) in the test with Streptococcus pneumoniae (setting [2]); 6.2 µM (≈ 3.41 µg/mL) with Streptococcus pneumoniae (setting [3]); 3.1 µM (≈ 1.71 µg/mL) with Staphylococcus aureus (setting [4]); 6.2 µM (≈ 3.41 µg/mL) with Staphylococcus aureus (setting [5]); 25 µM (≈ 13.8 µg/mL) in the test on Staphylococcus aureus (serum, read-out: Sau(f) MIC); 3.1 µM (≈ 1.71 µg/mL) in the test with Streptococcus pyogenes. The MIC in the test on Escherichia coli was more than 200 µM; in the test with Klebsiella pneumoniae, more than 200 µM; in the test with Pseudomonas aeruginosa, more than 200 µM; in the test on Haemophilus influenzae, 3.1 µM (≈ 1.71 µg/mL). Moreover, the pIC50 in test [1] is 5.72.

Take `C[C@@H]1CN2c3c(cc4c(N5C(=O)OC[C@H]5c5ccncc5)noc4c3F)CC3(C(=O)NC(=O)NC3=O)[C@H]2[C@H](C)O1` [Example 57, (2R,4S,4aS)-11-Fluoro-2,4-dimethyl-8-((R)-2-oxo-4-(pyridin-4-yl)oxazolidin-3-yl)-2,4,4a,6-tetrahydro-1H,1′H-spiro[isoxazolo[4,5-g][1,4]oxazino[4,3-a]quinoline-5,5′-pyrimidine]-2′,4′,6′(3′H)-trione]: the MIC in the test with Streptococcus pneumoniae (setting [2]) was found to be 0.78 µM (≈ 0.429 µg/mL); in the test on Streptococcus pneumoniae (setting [3]), 1.6 µM (≈ 0.881 µg/mL); with Staphylococcus aureus (setting [4]) it was 1.6 µM (≈ 0.881 µg/mL); in the test on Staphylococcus aureus (setting [5]) it was 6.2 µM (≈ 3.41 µg/mL); in the test with Staphylococcus aureus (serum, read-out: Sau(f) MIC), 3.1 µM (≈ 1.71 µg/mL); in the test with Streptococcus pyogenes, 0.78 µM (≈ 0.429 µg/mL). The MIC was 100 µM (≈ 55.1 µg/mL) with Escherichia coli, more than 200 µM in the test on Klebsiella pneumoniae, more than 200 µM with Pseudomonas aeruginosa and 0.39 µM (≈ 0.215 µg/mL) with Haemophilus influenzae. Moreover, the pIC50 in test [1] was 6.12.
